In general, IC50 refers to the concentration needed to halve the response being measured. A high value points to lower potency. As usually defined, the Ki is the equilibrium dissociation constant of an inhibitor or competing ligand from its target.

The target of one assay is T1, Pancreatic triacylglycerol lipase (Homo sapiens, UniProt P16233).
T1 sequence (P16233 whole entry): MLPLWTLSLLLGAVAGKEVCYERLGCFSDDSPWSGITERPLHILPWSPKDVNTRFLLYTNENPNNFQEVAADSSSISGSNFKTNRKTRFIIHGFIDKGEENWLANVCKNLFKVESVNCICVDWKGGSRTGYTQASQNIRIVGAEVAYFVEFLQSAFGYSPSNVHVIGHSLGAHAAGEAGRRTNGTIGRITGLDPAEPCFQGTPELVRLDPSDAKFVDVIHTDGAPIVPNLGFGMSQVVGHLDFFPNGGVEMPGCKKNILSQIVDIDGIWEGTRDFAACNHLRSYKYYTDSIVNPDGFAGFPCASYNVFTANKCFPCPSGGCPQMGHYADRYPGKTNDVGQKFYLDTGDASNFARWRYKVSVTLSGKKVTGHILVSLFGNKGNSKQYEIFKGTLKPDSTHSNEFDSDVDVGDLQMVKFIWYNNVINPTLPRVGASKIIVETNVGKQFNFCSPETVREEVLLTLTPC
The assay can be described thus: Negative allosteric modulator activity at human Pancreatic lipase using DDAO-ol as fluorescent substrate preincubated for 3 mins followed by substrate addition measured after 20 mins by microplate reader assay.
Details: not given
As to `O=C(Nc1ccc(Oc2ccc(F)cc2)c(F)c1)c1ccccc1O`, it took 11.4 µM to reach half-maximal inhibition (IC50).
The compound `Cc1ccc(Oc2ccc(NC(=O)c3ccccc3O)cc2)cc1` registered an IC50 of 12 µM.
Same read-out and setting: the value for `O=C(Nc1ccc(Oc2ccc(Cl)cc2)c(Cl)c1)c1ccc(Cl)cc1O` was 12.4 µM; that for `Nc1ccc(C(=O)Nc2ccc(Oc3ccc(Cl)cc3)c(Cl)c2)c(O)c1` was 6.27 µM.
Same read-out and setting: next, `COc1cccc(O)c1C(=O)Nc1ccc(Oc2ccc(Cl)cc2)c(Cl)c1`: 26.3 µM; `O=C(Nc1ccc(Oc2ccc(Cl)cc2)cc1)c1ccccc1O`: 20.4 µM; `CC(C)=CC[C@]12Oc3cc(O)c([C@H]4C=C(C)C[C@H](c5ccc(O)cc5O)[C@H]4C(=O)c4ccc(O)cc4O)c(O)c3C(=O)[C@@]1(O)Oc1cc(O)ccc12` [SANGGENON C]: 3.28 µM.
In turn, `CCCOc1ccccc1C(=O)Nc1ccc(Oc2ccc(Cl)cc2)c(Cl)c1` registered an IC50 of 18.3 µM.
For `COc1ccc(C(=O)Nc2ccc(Oc3ccc(Cl)cc3)c(Cl)c2)c(O)c1`, inhibition was half-maximal at 10 µM (IC50).
On to `O=C(Nc1ccc(Oc2ccc(Cl)cc2)c(Cl)c1)c1ccc(F)cc1O`, for which 4.27 µM corresponded to half-maximal inhibition (IC50).
Regarding `O=C(Nc1ccc(Oc2ccc(Cl)cc2)c(Cl)c1)c1ccccc1`, the IC50 was 10.5 µM.
Still for that read-out and setting: next, `CC(C)Oc1ccc(Oc2ccc(NC(=O)c3ccccc3O)cc2)cc1`: 9.24 µM; `CCCNc1ccc(C(=O)Nc2ccc(Oc3ccc(Cl)cc3)c(Cl)c2)c(O)c1`: 5.99 µM.
For the compound `O=C(Nc1ccc(Oc2ccc(Cl)cc2)c(Cl)c1)c1cc(Br)cc(Br)c1O`, the IC50 was 2.13 µM.
Compound `O=C(Nc1ccc(Oc2ccccc2)c(Cl)c1)c1ccccc1O` returned an IC50 of 9.96 µM.
For the compound `O=C(Nc1ccc(Oc2ccc(Cl)cc2)c(Cl)c1)c1ccccc1F`, the midpoint of inhibition, the IC50, lay at 23.7 µM.
`O=C(Nc1ccc(Oc2ccc(Cl)cc2)c(Cl)c1)c1ccccc1OC(F)(F)F` returned an IC50 of 15.8 µM.
`O=C(Nc1ccc(Oc2ccc(Cl)cc2)c(Cl)c1)c1ccccc1Br`: the IC50 amounted to 11 µM.
Consider `COc1ccccc1C(=O)Nc1ccc(Oc2ccc(Cl)cc2)c(Cl)c1`, for which half-maximal inhibition (IC50) required 16.7 µM.
Compound `O=C(Nc1ccc(Oc2ccc(Cl)cc2)c(Cl)c1)c1cc(Cl)cc(Cl)c1O` had an IC50 of 1.63 µM.
The same measure, in the same setting: next, `O=C(Nc1ccc(Oc2ccc(Cl)cc2)c(Cl)c1)c1ccccc1O`: 6.75 µM.
Compound `O=C(Nc1ccc(Oc2ccc(Cl)cc2)c(Cl)c1)c1ccccc1Cl` had an IC50 of 15 µM.
As to `CCCCCCNc1ccc(C(=O)Nc2ccc(Oc3ccc(Cl)cc3)c(Cl)c2)c(O)c1`, half-maximal inhibition (IC50) was put at 12.4 µM.
Same read-out and setting: next, `Cc1ccccc1C(=O)Nc1ccc(Oc2ccc(Cl)cc2)c(Cl)c1`: 27.4 µM.
On to `O=C(Nc1ccc(Oc2ccc(Cl)cc2)c(Cl)c1)c1cc(I)cc(I)c1O` [RAFOXANIDE], for which half-maximal inhibition (IC50) was put at 2.52 µM.
Still for that read-out and setting: next, `O=C(Nc1ccc(O)cc1)c1ccccc1O` [OSALMID]: above 500 µM.
Compound `O=C(Nc1ccc(Oc2ccccc2)cc1)c1ccccc1O` returned an IC50 of 19.1 µM.
Same read-out and setting: next, `COc1ccc(Oc2ccc(NC(=O)c3ccccc3O)cc2)cc1`: 32.7 µM; `O=C(Nc1ccc(Oc2ccc(Cl)cc2)c(Cl)c1)c1cc(F)cc(F)c1O`: 1.86 µM.

The target in another assay is T1, Pancreatic triacylglycerol lipase. The assay can be described thus: Negative allosteric modulator activity at human Pancreatic lipase assessed as inhibition of PL-mediated DDAO-ol hydrolysis by measuring inhibition constant using DDAO-ol as fluorescent substrate by Lineweaver-Burk plot analysis.
Details: not given
`O=C(Nc1ccc(Oc2ccc(Cl)cc2)c(Cl)c1)c1cc(Cl)cc(Cl)c1O`: the Ki was 1700 nM.
With `O=C(Nc1ccc(Oc2ccc(Cl)cc2)c(Cl)c1)c1cc(F)cc(F)c1O`, the Ki is 1670 nM.

For the next assay, the target named is T2, Pancreatic triacylglycerol lipase (Homo sapiens) (UniProt P16233).
T2 sequence (whole entry): T1 sequence (P16233 whole entry)
Put plainly: Binding affinity to human Pancreatic lipase assessed as Stem-Volmer quenching constant by fluorescence quenching assay based spectrophotometer analysis. The settings on record: filed as negative allosteric modulator.
For the compound `O=C(Nc1ccc(Oc2ccc(Cl)cc2)c(Cl)c1)c1cc(Cl)cc(Cl)c1O`, the KSV was 3.39 10^6L/mol.
For the compound `O=C(Nc1ccc(Oc2ccc(Cl)cc2)c(Cl)c1)c1cc(F)cc(F)c1O`, the KSV was 3.61 10^6L/mol.

Another assay has as its target T2, Pancreatic triacylglycerol lipase (Homo sapiens). Put plainly: Binding affinity to human Pancreatic lipase assessed as quenching constant by fluorescence quenching assay based spectrophotometer analysis. Conditions: filed as negative allosteric modulator.
As for `O=C(Nc1ccc(Oc2ccc(Cl)cc2)c(Cl)c1)c1cc(Cl)cc(Cl)c1O`, the Kq is 3.39 10^14L/mol/s.
As for `O=C(Nc1ccc(Oc2ccc(Cl)cc2)c(Cl)c1)c1cc(F)cc(F)c1O`, the Kq was 3.61 10^14L/mol/s.

Another assay addresses T1, Pancreatic triacylglycerol lipase. Put plainly: Inhibition of Pancreatic lipase (unknown origin) using 4-MUO as fluorescent substrate preincubated for 3 mins followed by substrate addition measured after 20 mins by microplate reader assay.
Details: not given
On to `CC1(C)CC[C@]2(C(=O)O)CC[C@]3(C)C(=CC[C@@H]4[C@@]5(C)CCC(=O)C(C)(C)[C@@H]5CC[C@]43C)[C@@H]2C1` [OLEANONIC ACID], for which it took 490 nM to reach half-maximal inhibition (IC50).
